According to patent US11312723B2, “Pyranopyrazole and pyrazolopyridine immunomodulators for treatment of autoimmune diseases” (The Rockefeller University, priority 2017, dated 2022):

What was measured:
Human FXIIa = Human FXIIa (Homo sapiens (Human), UniProt P00748); assay: Factor XIIa (FXIIa) inhibitory activity, chromogenic substrate (Pefachrome XIIa) cleavage; assay type: biochemical; details: 10 min pre-incubation, Pefachrome XIIa 400 μM
Human alpha-thrombin = Human alpha-thrombin (Homo sapiens (Human), UniProt P00734); assay: Thrombin counterscreen for selectivity, fluorogenic substrate cleavage; assay type: biochemical; details: 10 min pre-incubation, Boc-Val-Pro-Arg-AMC 20 μM
Description: Counterscreens for Selectivity:
Thrombin. In a 96-well white opaque plate, 80 μl of assay buffer was added to each well. Test compounds were added, and serially diluted as above, to generate a concentration range of approximately 1-100 μM. Human alpha-thrombin (Enzyme Research Labs) was diluted in assay buffer to a final concentration of 12.5 nM. 80 μl of this enzyme solution was added to the assay wells. The enzyme/compound mixtures were incubated for 10 minutes at room temperature. Fluorogenic substrate (Boc-Val-Pro-Arg-7-amido-4-methylcoumarin; Sigma) was added to assay wells at a final concentration of 20 μM. The assay plate was spun for 1 minute at 1500 g and then read at 37° C. in a SpectraMax M2 plate reader (λex=380 nm and λem=460 nm). Activity was quantified as the rate of change in fluorescence, which corresponds to the rate of substrate cleavage. IC50 values were determined as the concentration of inhibitor that produced 50% of the rate of change of control wells without any inhibitor. For compounds with activity <1 μM, the assay was repeated with a lower concentration range, typically from 10-1000 nM.

Sequence of Human FXIIa (P00748 373-615): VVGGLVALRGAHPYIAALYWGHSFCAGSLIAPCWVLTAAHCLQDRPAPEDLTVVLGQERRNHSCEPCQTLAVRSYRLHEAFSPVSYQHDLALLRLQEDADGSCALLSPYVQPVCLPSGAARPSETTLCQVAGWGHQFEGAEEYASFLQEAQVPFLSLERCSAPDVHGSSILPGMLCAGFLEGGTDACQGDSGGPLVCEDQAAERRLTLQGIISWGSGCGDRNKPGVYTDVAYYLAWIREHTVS
Sequence of Human FXIIa (P00748 20-372 partner): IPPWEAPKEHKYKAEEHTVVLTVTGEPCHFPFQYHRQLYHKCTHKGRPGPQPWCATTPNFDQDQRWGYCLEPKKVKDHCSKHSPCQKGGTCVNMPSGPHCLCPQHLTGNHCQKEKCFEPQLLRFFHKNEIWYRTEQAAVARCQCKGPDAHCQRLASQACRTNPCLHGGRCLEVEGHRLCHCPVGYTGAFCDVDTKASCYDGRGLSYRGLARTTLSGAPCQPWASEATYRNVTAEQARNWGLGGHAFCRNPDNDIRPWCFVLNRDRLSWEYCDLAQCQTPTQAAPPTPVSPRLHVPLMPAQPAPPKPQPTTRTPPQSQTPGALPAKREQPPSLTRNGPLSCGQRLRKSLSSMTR

`CCN1CCc2c(N)nn(C(=O)C3CCNc4ccccc43)c2C1` (stereo not shown) [Example 21, (3-amino-6-ethyl-4,5,6,7-tetrahydropyrazolo[3,4-c]pyridin-1-yl)(1,2,3,4-tetrahydroquinolin-4-yl)methanone] was tested, and the IC50 (Human FXIIa) was 1.5 µM and the IC50 (Human alpha-thrombin) was > 50 µM.

In the case of `CS(=O)(=O)N1CCc2c(nn(C(=O)C3CCNc4ccc(C(F)(F)F)cc43)c2N)C1` (stereo not shown) [Example 24, (3-amino-6-(methylsulfonyl)-4,5,6,7-tetrahydropyrazolo[3,4-c]pyridin-2-yl)(6-(trifluoromethyl)-1,2,3,4-tetrahydroquinolin-4-yl)methanone], the IC50 (Human FXIIa) is reported as 0.1 µM and the IC50 (Human alpha-thrombin) is reported as 25 µM.

`CS(=O)(=O)N1CCc2c(N)nn(C(=O)C3CCNc4ccc(C(F)(F)F)cc43)c2C1` (stereo not shown) [Example 25, (3-amino-6-(methylsulfonyl)-4,5,6,7-tetrahydropyrazolo[3,4-c]pyridin-1-yl)(6-(trifluoromethyl)-1,2,3,4-tetrahydroquinolin-4-yl)methanone] was tested, and the IC50 (Human FXIIa) was 40 µM and the IC50 (Human alpha-thrombin) was > 70 µM.

`Cn1cc2c(c1)C(C(=O)n1nc3c(c1N)CCN(S(C)(=O)=O)C3)CCC2` (stereo not shown) [Example 26, (3-amino-6-(methylsulfonyl)-4,5,6,7-tetrahydropyrazolo[3,4-c]pyridin-2-yl)(2-methyl-4,5,6,7-tetrahydro-2H-isoindol-4-yl)methanone] gave an IC50 (Human FXIIa) of 0.15 µM and an IC50 (Human alpha-thrombin) of 4.5 µM.

In the case of `Nc1c2c(nn1C(=O)C1CCNc3ccc(F)cc31)CN(c1ccccc1)CC2` (stereo not shown) [Example 28, (3-amino-6-phenyl-4,5,6,7-tetrahydropyrazolo[3,4-c]pyridin-2-yl)(6-fluoro-1,2,3,4-tetrahydroquinolin-4-yl)methanone], the IC50 (Human FXIIa) is reported as 0.16 µM and the IC50 (Human alpha-thrombin) is reported as > 35 µM.

Work on `CCc1ccc2c(c1)C(C(=O)n1nc3c(c1N)CCN(S(C)(=O)=O)C3)CCN2` (stereo not shown) [Example 30, (3-amino-6-(methylsulfonyl)-4,5,6,7-tetrahydropyrazolo[3,4-c]pyridin-2-yl)(6-ethyl-1,2,3,4-tetrahydroquinolin-4-yl)methanone] yielded an IC50 (Human FXIIa) of 0.05 µM and an IC50 (Human alpha-thrombin) of 22 µM.

Work on `Cc1cccc2c1NCCC2C(=O)n1nc2c(c1N)CCN(S(C)(=O)=O)C2` (stereo not shown) [Example 34, (3-amino-6-(methylsulfonyl)-4,5,6,7-tetrahydropyrazolo[3,4-c]pyridine-2-yl)(8-methyl-1,2,3,4-tetrahydroquinolin-4-yl)methanone] yielded an IC50 (Human FXIIa) of 0.04 µM and an IC50 (Human alpha-thrombin) of 23 µM.

For `CS(=O)(=O)N1CCc2c(nn(C(=O)C3CCNc4c(F)cccc43)c2N)C1` (stereo not shown) [Example 37, (3-amino-6-(methylsulfonyl)-4,5,6,7-tetrahydropyrazolo[3,4-c]pyridin-2-yl)(8-fluoro-1,2,3,4-tetrahydroquinolin-4-yl)methanone], the IC50 (Human FXIIa) was 0.1 µM and the IC50 (Human alpha-thrombin) was 25 µM.

For `CC1(C)CC(C(=O)n2nc3c(c2N)CCN(S(C)(=O)=O)C3)c2ccccc2N1` (stereo not shown) [Example 39, (3-amino-6-(methylsulfonyl)-4,5,6,7-tetrahydropyrazolo[3,4-c]pyridin-2-yl)(2,2-dimethyl-1,2,3,4-tetrahydroquinolin-4-yl)methanone], the IC50 (Human FXIIa) was 0.15 µM and the IC50 (Human alpha-thrombin) was 45 µM.

`CS(=O)(=O)N1CCc2c(nn(C(=O)C3CCNc4ncccc43)c2N)C1` (stereo not shown) [Example 41, (3-amino-6-(methylsulfonyl)-4,5,6,7-tetrahydropyrazolo[3,4-c]pyridin-2-yl)(1,2,3,4-tetrahydro-1,8-naphthyridin-4-yl)methanone] was tested, and the IC50 (Human FXIIa) was 1.7 µM and the IC50 (Human alpha-thrombin) was 4.4 µM.

For `CC(C)c1ccc2c(c1)C(C(=O)n1nc3c(c1N)CCN(S(C)(=O)=O)C3)CCN2` (stereo not shown) [Example 45, (3-amino-6-(methylsulfonyl)-4,5,6,7-tetrahydropyrazolo[3,4-c]pyridin-2-yl)(6-isopropyl-1,2,3,4-tetrahydroquinolin-4-yl)methanone], the IC50 (Human FXIIa) was 2.2 µM and the IC50 (Human alpha-thrombin) was 45 µM.

In the case of `CS(=O)(=O)N1CCc2c(nn(C(=O)C3CCNc4ccc(-c5ccccc5)cc43)c2N)C1` (stereo not shown) [Example 49, (3-amino-6-(methylsulfonyl)-4,5,6,7-tetrahydropyrazolo[3,4-c]pyridin-2-yl)(6-phenyl-1,2,3,4-tetrahydroquinolin-4-yl)methanone], the IC50 (Human FXIIa) is reported as 11 µM and the IC50 (Human alpha-thrombin) is reported as 17 µM.

`Cc1cc(F)cc2c1NCCC2C(=O)n1nc2c(c1N)CCN(S(C)(=O)=O)C2` (stereo not shown) [Example 51, (3-amino-6-(methylsulfonyl)-4,5,6,7-tetrahydropyrazolo[3,4-c]pyridin-2-yl)(6-fluoro-8-methyl-1,2,3,4-tetrahydroquinolin-4-yl)methanone] gave an IC50 (Human FXIIa) of 0.02 µM and an IC50 (Human alpha-thrombin) of 15 µM.

With `CCc1cc(C)c2c(c1)C(C(=O)n1nc3c(c1N)CCN(S(C)(=O)=O)C3)CCN2` (stereo not shown) [Example 55, (3-amino-6-(methylsulfonyl)-4,5,6,7-tetrahydropyrazolo[3,4-c]pyridin-2-yl)(6-ethyl-8-methyl-1,2,3,4-tetrahydroquinolin-4-yl)methanone] the IC50 (Human FXIIa) was 0.04 µM and the IC50 (Human alpha-thrombin) was > 70 µM.

`CS(=O)(=O)N1CCc2c(nn(C(=O)C3CCNc4c(Cl)cccc43)c2N)C1` (stereo not shown) [Example 57, (3-amino-6-(methylsulfonyl)-4,5,6,7-tetrahydropyrazolo[3,4-c]pyridin-2-yl)(8-chloro-1,2,3,4-tetrahydroquinolin-4-yl)methanone] was tested, and the IC50 (Human FXIIa) was 0.05 µM and the IC50 (Human alpha-thrombin) was 16 µM.

`COc1cccc2c1NCCC2C(=O)n1nc2c(c1N)CCN(S(C)(=O)=O)C2` (stereo not shown) [Example 61, (3-amino-6-(methylsulfonyl)-4,5,6,7-tetrahydropyrazolo[3,4-c]pyridin-2-yl)(8-methoxy-1,2,3,4-tetrahydroquinolin-4-yl)methanone] gave an IC50 (Human FXIIa) of 0.1 µM and an IC50 (Human alpha-thrombin) of 20 µM.

For `CS(=O)(=O)N1CCc2c(nn(C(=O)C3CCNc4c3cccc4C(F)(F)F)c2N)C1` (stereo not shown) [Example 67, (3-amino-6-(methylsulfonyl)-4,5,6,7-tetrahydropyrazolo[3,4-c]pyridin-2-yl)(8-(trifluoromethyl)-1,2,3,4-tetrahydroquinolin-4-yl)methanone], the IC50 (Human FXIIa) was 0.15 µM and the IC50 (Human alpha-thrombin) was > 70 µM.

`Nc1c2c(nn1C(=O)C1CCNc3ccc(F)cc31)CCOC2` (stereo not shown) [Example 74, (3-amino-6,7-dihydropyrano[4,3-c]pyrazol-2(4H)-yl)(6-fluoro-1,2,3,4-tetrahydroquinolin-4-yl)methanone] was tested, and the IC50 (Human FXIIa) was 0.08 µM and the IC50 (Human alpha-thrombin) was 50 µM.

`Cc1cc2c(C(=O)n3nc4c(c3N)CN(C)CC4)cccc2[nH]1` [Example 85, (3-amino-5-methyl-4,5,6,7-tetrahydro-pyrazolo[4,3-c]pyridin-2-yl)(2-methyl-1H-indol-4-yl)methanone] showed an IC50 (Human FXIIa) of 0.03 µM and an IC50 (Human alpha-thrombin) of 60 µM.

With `COC(=O)N1CCc2nn(C(=O)C3CCNc4ccccc43)c(N)c2C1` (stereo not shown) [Example 87, methyl 3-amino-2-(1,2,3,4-tetrahydro-quinoline-4-carbonyl)-6,7-dihydro-2H-pyrazolo[4,3-c]pyridine-5(4H)-carboxylate] the IC50 (Human FXIIa) was 0.8 µM and the IC50 (Human alpha-thrombin) was > 100 µM.

For `CNC(=O)N1CCc2nn(C(=O)C3CCNc4ccccc43)c(N)c2C1` (stereo not shown) [Example 89, 3-amino-N-methyl-2-(1,2,3,4-tetrahydro-quinoline-4-carbonyl)-6,7-dihydro-2H-pyrazolo[4,3-c]pyridine-5(4H)-carboxamide], the IC50 (Human FXIIa) was 0.8 µM and the IC50 (Human alpha-thrombin) was > 80 µM.

For `CNC(=O)N1CCc2c(c(N)nn2C(=O)C2CCNc3ccccc32)C1` (stereo not shown) [Example 90, 3-amino-N-methyl-1-(1,2,3,4-tetrahydro-quinoline-4-carbonyl)-6,7-dihydro-1H-pyrazolo[4,3-c]pyridine-5(4H)-carboxamide], the IC50 (Human FXIIa) was 1.5 µM and the IC50 (Human alpha-thrombin) was 12 µM.

In the case of `CS(=O)(=O)N1CCc2nn(C(=O)C3CCNc4ccccc43)c(N)c2C1` (stereo not shown) [Example 91, (3-amino-5-(methylsulfonyl)-4,5,6,7-tetrahydro-pyrazolo[4,3-c]pyridin-2-yl)(1,2,3,4-tetrahydro-quinolin-4-yl)methanone], the IC50 (Human FXIIa) is reported as 1.5 µM and the IC50 (Human alpha-thrombin) is reported as > 70 µM.

In the case of `CCN1CCc2nn(C(=O)C3CCNc4ccccc43)c(N)c2C1` (stereo not shown) [Example 93, (3-amino-5-ethyl-4,5,6,7-tetrahydro-pyrazolo[4,3-c]pyridin-2-yl)(1,2,3,4-tetrahydro-quinolin-4-yl)methanone], the IC50 (Human FXIIa) is reported as 1.3 µM and the IC50 (Human alpha-thrombin) is reported as > 100 µM.

For `CCN1CCc2c(c(N)nn2C(=O)C2CCNc3ccccc32)C1` (stereo not shown) [Example 94, (3-amino-5-ethyl-4,5,6,7-tetrahydro-pyrazolo[4,3-c]pyridin-1-yl)(1,2,3,4-tetrahydro-quinolin-4-yl)methanone], the IC50 (Human FXIIa) was > 50 µM and the IC50 (Human alpha-thrombin) was > 80 µM.

With `CC(=O)N1CCc2nn(C(=O)C3CCNc4ccccc43)c(N)c2C1` (stereo not shown) [Example 95, 1-(3-amino-2-(1,2,3,4-tetrahydro-quinoline-4-carbonyl)-6,7-dihydro-2H-pyrazolo[4,3-c]pyridin-5(4H)-yl)ethanone] the IC50 (Human FXIIa) was 0.7 µM and the IC50 (Human alpha-thrombin) was > 50 µM.

`CN1CCc2nn(C(=O)C3CCCc4[nH]ccc43)c(N)c2C1` (stereo not shown) [Example 97, (3-amino-5-methyl-4,5,6,7-tetrahydro-pyrazolo[4,3-c]pyridin-2-yl)(4,5,6,7-tetrahydro-1H-indol-4-yl)methanone] was tested, and the IC50 (Human FXIIa) was 8.5 µM and the IC50 (Human alpha-thrombin) was > 80 µM.

Work on `CN1CCc2c(c(N)nn2C(=O)C2CCCc3[nH]ccc32)C1` (stereo not shown) [Example 98, (3-amino-5-methyl-4,5,6,7-tetrahydro-pyrazolo[4,3-c]pyridin-1-yl)(4,5,6,7-tetrahydro-1H-indol-4-yl)methanone] yielded an IC50 (Human FXIIa) of 20 µM and an IC50 (Human alpha-thrombin) of 70 µM.

`CC(=O)N1CCc2c(nn(C(=O)c3cccc4[nH]c(C)cc34)c2N)C1` [Example 99, 1-(3-amino-2-(2-methyl-1H-indole-4-carbonyl)-4,5-dihydro-2H-pyrazolo[3,4-c]pyridin-6(7H)-yl)ethanone] was tested, and the IC50 (Human FXIIa) was 0.04 µM and the IC50 (Human alpha-thrombin) was > 50 µM.
